Measurements reported in patent publication US7833939B2, “Herbicide compositions” (Kumiai Chemical Industry Co., Ltd., priority 2002, dated 2010).
Values belong to the compound of their own block, whether it stands above or below them.

Experiments:
[1] = system: corn; test: Herbicidal effect by upland field soil treatment (Application Example 1): phytotoxicity to corn; assay type: in vivo; details: 30th day from treatment
Protocol: (§1) Test for Herbicidal Effect by Upland Field Soil Treatment
(§2) An upland field soil was filled in a plastic pot of 11 cm each of length, width and depth. Seeds of corn, green foxtail (Setaria viridis) and common lambsquarters (Chenopodium album L.) were sowed, followed by covering with the same soil. The wettable powder produced in accordance with Formulation 1 was weighed so as to provide active ingredients in a predetermined amount, and was diluted with water and sprayed uniformly on the soil surface using a small sprayer, in an amount of 100 liters per […]. Then, growing was made in a greenhouse, and the herbicidal effect of each wettable powder was examined at the 30th day from the treatment in accordance with the standard shown in Table 15.

[2] = system: green foxtail (Setaria viridis); test: Herbicidal effect by upland field soil treatment (Application Example 1): green foxtail; assay type: in vivo; details: 30th day from treatment
Protocol: as §1, §2

[3] = system: common lambsquarters (Chenopodium album L.); test: Herbicidal effect by upland field soil treatment (Application Example 1): common lambsquarters; assay type: in vivo; details: 30th day from treatment
Protocol: as §1, §2

[4] = 16 g a.i./ha, soil surface spray of wettable powder, index of Table 15
[5] = 16 g a.i./ha, upland field soil treatment
[6] = 32 g a.i./ha, upland field soil treatment
[7] = 32 g a.i./ha, soil surface spray of wettable powder, index of Table 15
[8] = 500 g a.i./ha, soil surface spray of wettable powder, index of Table 15
[9] = 500 g a.i./ha, upland field soil treatment

melting point: 115 to 116 °C
SMILES: Cn1nc(C(F)(F)F)c(CS(=O)(=O)C2=NOC(C)(C)C2)c1Cl [Compound 3-0039, 3-(5-chloro-1-methyl-3-trifluoromethylpyrazol-4-ylmethanesulfonyl)-5,5-dimethyl-2-isoxazoline]
Herbicidal effect Corn [1, 4]: 0 (Herbicidal effect or phytotoxicity of from 0 to 9%)
Herbicidal effect Green foxtail (Sataria viridis) [2, 4]: 3 (Herbicidal effect or phytotoxicity of from 30 to 39%)
Herbicidal effect Common lambsquarter (Chenopodium album L.) [3, 4]: 3 (Herbicidal effect or phytotoxicity of from 30 to 39%)

melting point: 78 to 79 °C
SMILES: Cn1nc(C(F)F)c(CS(=O)(=O)C2=NOC(C)(C)C2)c1Cl [Compound 3-0018, 3-(5-chloro-3-difluoromethyl-1-methyl-1H-pyrazol-4-ylmethylsulfonyl)-5,5-dimethyl-2-isoxazoline]
Herbicidal effect Corn [1, 5]: 0 (Herbicidal effect or phytotoxicity of from 0 to 9%)
Herbicidal effect Green foxtail (Sataria viridis) [2, 5]: 3 (Herbicidal effect or phytotoxicity of from 30 to 39%)
Herbicidal effect Common lambsquarter (Chenopodium album L.) [3, 5]: 3 (Herbicidal effect or phytotoxicity of from 30 to 39%)

melting point: 113 to 114 °C
SMILES: COc1c(CS(=O)(=O)C2=NOC(C)(C)C2)c(C(F)(F)F)nn1C [Compound 3-0013, 5,5-dimethyl-3-(5-methoxy-1-methyl-3-trifluoromethyl-1H-pyrazol-4-ylmethylsulfonyl)-2-isoxazoline]
Herbicidal effect Corn [1, 5]: 0 (Herbicidal effect or phytotoxicity of from 0 to 9%)
Herbicidal effect Green foxtail (Sataria viridis) [2, 5]: 2 (Herbicidal effect or phytotoxicity of from 20 to 29%)
Herbicidal effect Common lambsquarter (Chenopodium album L.) [3, 5]: 2 (Herbicidal effect or phytotoxicity of from 20 to 29%)

SMILES: Cn1nc(C(F)(F)F)c(CS(=O)(=O)C2=NOC(C)(C)C2)c1OC(F)F [Compound 3-0188, 3-(5-difluoromethoxy-1-methyl-3-trifluoromethyl-1H-pyrazol-4-ylmethanesulfonyl)-5,5-dimethyl-2-isoxazoline]
Herbicidal effect Green foxtail (Sataria viridis) [2, 4]: 3 (Herbicidal effect or phytotoxicity of from 30 to 39%)
Herbicidal effect Common lambsquarter (Chenopodium album L.) [3, 4]: 2 (Herbicidal effect or phytotoxicity of from 20 to 29%)

melting point: 105 to 108 °C
SMILES: Cn1nc(C(F)(F)F)c(CS(=O)(=O)C2=NOC(C)(C)C2)c1C#N [Compound 3-0016, 3-(5-cyano-1-methyl-3-trifluoromethyl-1H-pyrazol-4-ylmethylsulfonyl)-5,5-dimethyl-2-isoxazoline]
Herbicidal effect Corn [1, 5]: 0 (Herbicidal effect or phytotoxicity of from 0 to 9%)
Herbicidal effect Green foxtail (Sataria viridis) [2, 5]: 3 (Herbicidal effect or phytotoxicity of from 30 to 39%)
Herbicidal effect Common lambsquarter (Chenopodium album L.) [3, 5]: 3 (Herbicidal effect or phytotoxicity of from 30 to 39%)

melting point: 89 to 90 °C
SMILES: CC1(C)CC(SCc2c(C(F)(F)F)nn(-c3ccccc3)c2Cl)=NO1

melting point: 113 to 114 °C
SMILES: Cn1nc(C(F)(F)F)c(CS(=O)(=O)C2=NOC(C)(C)C2)c1OC1CCCC1 [Compound 3-0015, 3-(5-cyclopentyloxy-1-methyl-3-trifluoromethyl-1H-pyrazol-4-ylmethylsulfonyl)-5,5-dimethyl-2-isoxazoline]
Herbicidal effect Corn [1, 6]: 0 (Herbicidal effect or phytotoxicity of from 0 to 9%)
Herbicidal effect Green foxtail (Sataria viridis) [2, 6]: 3 (Herbicidal effect or phytotoxicity of from 30 to 39%)
Herbicidal effect Common lambsquarter (Chenopodium album L.) [3, 6]: 3 (Herbicidal effect or phytotoxicity of from 30 to 39%)

melting point: 79 to 81 °C
SMILES: CC1(C)CC(SCc2c(C(F)(F)F)nn(C(C)(C)C)c2Cl)=NO1

melting point: 120 to 122 °C
SMILES: CC1(C)CC(SCc2c(C(F)(F)F)n[nH]c2Cl)=NO1

melting point: 158 to 160 °C
SMILES: CCS(=O)(=O)c1c(CS(=O)(=O)C2=NOC(C)(C)C2)c(C(F)(F)F)nn1-c1ccccc1 [Compound 3-0004, 5,5-dimethyl-3-(5-ethylsulfonyl-1-phenyl-3-trifluoromethyl-1H-pyrazol-4-ylmethylsulfonyl)-2-isoxazoline]
Herbicidal effect Corn [1, 6]: 0 (Herbicidal effect or phytotoxicity of from 0 to 9%)
Herbicidal effect Green foxtail (Sataria viridis) [2, 6]: 3 (Herbicidal effect or phytotoxicity of from 30 to 39%)
Herbicidal effect Common lambsquarter (Chenopodium album L.) [3, 6]: 2 (Herbicidal effect or phytotoxicity of from 20 to 29%)

melting point: 135 to 136 °C
SMILES: Cc1onc(C(F)(F)F)c1CS(=O)(=O)C1=NOC(C)(C)C1 [Compound 4-0001, 5,5-dimethyl-3-(5-methyl-3-trifluoromethylisoxazol-4-ylmethylsulfonyl)-2-isoxazoline]
Herbicidal effect Corn [1, 6]: 0 (Herbicidal effect or phytotoxicity of from 0 to 9%)
Herbicidal effect Green foxtail (Sataria viridis) [2, 6]: 2 (Herbicidal effect or phytotoxicity of from 20 to 29%)
Herbicidal effect Common lambsquarter (Chenopodium album L.) [3, 6]: 1 (Herbicidal effect or phytotoxicity of from 10 to 19%)

melting point: 150 to 151 °C
SMILES: CN(C)c1c(CS(=O)(=O)C2=NOC(C)(C)C2)c(C(F)(F)F)nn1-c1ccccc1 [Compound 3-0005, 5,5-dimethyl-3-(5-dimethylamino-1-phenyl-3-trifluoromethyl-1H-pyrazol-4-ylmethylsulfonyl)-2-isoxazoline]
Herbicidal effect Corn [1, 6]: 0 (Herbicidal effect or phytotoxicity of from 0 to 9%)
Herbicidal effect Green foxtail (Sataria viridis) [2, 6]: 2 (Herbicidal effect or phytotoxicity of from 20 to 29%)
Herbicidal effect Common lambsquarter (Chenopodium album L.) [3, 6]: 2 (Herbicidal effect or phytotoxicity of from 20 to 29%)

melting point: 105 to 107 °C
SMILES: CCn1nc(Cl)c(CS(=O)(=O)C2=NOC(C)(C)C2)c1Cl [Compound 3-0017, 3-(3,5-dichloro-1-ethyl-1H-pyrazol-4-ylmethylsulfonyl)-5,5-dimethyl-2-isoxazoline]
Herbicidal effect Corn [1, 5]: 0 (Herbicidal effect or phytotoxicity of from 0 to 9%)
Herbicidal effect Green foxtail (Sataria viridis) [2, 5]: 3 (Herbicidal effect or phytotoxicity of from 30 to 39%)
Herbicidal effect Common lambsquarter (Chenopodium album L.) [3, 5]: 3 (Herbicidal effect or phytotoxicity of from 30 to 39%)

melting point: 126 to 127 °C
SMILES: CC1(C)CC(S(=O)(=O)Cc2c(C(F)(F)F)nn(C(F)F)c2Cl)=NO1 [Compound 3-0010, 3-(5-chloro-1-difluoromethyl-3-trifluoromethyl-1H-pyrazol-4-ylmethylsulfonyl)-5,5-dimethyl-2-isoxazoline]
Herbicidal effect Corn [1, 5]: 0 (Herbicidal effect or phytotoxicity of from 0 to 9%)
Herbicidal effect Green foxtail (Sataria viridis) [2, 5]: 2 (Herbicidal effect or phytotoxicity of from 20 to 29%)
Herbicidal effect Common lambsquarter (Chenopodium album L.) [3, 5]: 2 (Herbicidal effect or phytotoxicity of from 20 to 29%)

SMILES: COc1ncnc(C(F)(F)F)c1CS(=O)(=O)C1=NOC(C)(C)C1 [Compound 8-0001, 5,5-dimethyl-[(4-methoxy-6-trifluoromethylpyrimidin-5-yl)-methylsulfonyl]-2-isoxazoline]
Herbicidal effect Corn [1, 4]: 0 (Herbicidal effect or phytotoxicity of from 0 to 9%)
Herbicidal effect Green foxtail (Sataria viridis) [2, 4]: 2 (Herbicidal effect or phytotoxicity of from 20 to 29%)
Herbicidal effect Common lambsquarter (Chenopodium album L.) [3, 4]: 1 (Herbicidal effect or phytotoxicity of from 10 to 19%)

melting point: 77 to 80 °C
SMILES: CC1(C)CC(S(=O)(=O)Cc2cnccc2C(F)(F)F)=NO1

SMILES: Cc1nsc(Cl)c1CS(=O)(=O)C1=NOC(C)(C)C1 [Compound 4-0002, [(5-chloro-3-methyl-isothiazol-4-yl)-methylsulfonyl]-5,5-dimethyl-2-isoxazoline]
Herbicidal effect Corn [1, 7]: 0 (Herbicidal effect or phytotoxicity of from 0 to 9%)
Herbicidal effect Green foxtail (Sataria viridis) [2, 7]: 3 (Herbicidal effect or phytotoxicity of from 30 to 39%)
Herbicidal effect Common lambsquarter (Chenopodium album L.) [3, 7]: 2 (Herbicidal effect or phytotoxicity of from 20 to 29%)

melting point: 41 to 42 °C
SMILES: CC1(C)CC(SCc2c(C(F)(F)F)nn(C(F)F)c2Cl)=NO1

melting point: 132 to 133 °C
SMILES: CC1(C)CC(S(=O)(=O)Cc2c(C(F)(F)F)nn(-c3ccccc3)c2Cl)=NO1 [Compound 3-0002, 3-(5-chloro-1-phenyl-3-trifluoromethyl-1H-pyrazol-4-ylmethylsulfonyl)-5,5-dimethyl-2-isoxazoline]
Herbicidal effect Corn [1, 6]: 0 (Herbicidal effect or phytotoxicity of from 0 to 9%)
Herbicidal effect Green foxtail (Sataria viridis) [2, 6]: 5 (Herbicidal effect or phytotoxicity of from 50 to 59%)
Herbicidal effect Common lambsquarter (Chenopodium album L.) [3, 6]: 2 (Herbicidal effect or phytotoxicity of from 20 to 29%)

melting point: 136 to 137 °C
SMILES: CC1(C)CC(S(=O)(=O)Cc2c(Cl)nn(C(F)F)c2C(F)(F)F)=NO1 [Compound 3-0011, 3-(3-chloro-1-difluoromethyl-5-trifluoromethyl-1H-pyrazol-4-ylmethylsulfonyl)-5,5-dimethyl-2-isoxazoline]
Herbicidal effect Corn [1, 5]: 0 (Herbicidal effect or phytotoxicity of from 0 to 9%)
Herbicidal effect Green foxtail (Sataria viridis) [2, 5]: 3 (Herbicidal effect or phytotoxicity of from 30 to 39%)
Herbicidal effect Common lambsquarter (Chenopodium album L.) [3, 5]: 2 (Herbicidal effect or phytotoxicity of from 20 to 29%)

melting point: 89 to 90 °C
SMILES: CC1(C)CC(SCc2c(Cl)nn(C(F)F)c2C(F)(F)F)=NO1

SMILES: CCNc1nc(Cl)nc(NC(C)(C)C#N)n1 [Cyanazine, cyanazine, reference compound]
Herbicidal effect Corn [1, 8]: 0 (Herbicidal effect or phytotoxicity of from 0 to 9%)
Herbicidal effect Corn [1, 9]: 0 (Herbicidal effect or phytotoxicity of from 0 to 9%)
Herbicidal effect Green foxtail (Sataria viridis) [2, 8]: 1 (Herbicidal effect or phytotoxicity of from 10 to 19%)
Herbicidal effect Green foxtail (Sataria viridis) [2, 9]: 1 (Herbicidal effect or phytotoxicity of from 10 to 19%)
Herbicidal effect Common lambsquarter (Chenopodium album L.) [3, 8]: 2 (Herbicidal effect or phytotoxicity of from 20 to 29%)
Herbicidal effect Common lambsquarter (Chenopodium album L.) [3, 9]: 2 (Herbicidal effect or phytotoxicity of from 20 to 29%)

melting point: 151 to 152 °C
SMILES: CC1(C)CC(S(=O)(=O)Cc2c(C(F)(F)F)nn3c2OCCC3)=NO1
